Data from ChEMBL document CHEMBL5674860, “Optimized Dual-Glo Assay to identify co-culture-induced drug vulnerabilities in 3D CRC models” (2024).

Legend:
Type in all cases: functional, Homo sapiens
Parameters in all cases: dose or concentration left out as unconfirmed
Colon cancer organoid [1] = assay: Optimized Dual-Glo assay to identify co-culture induced drug vulnerabilities using donated chemical probes and chemogenomics kinase set in O14 CRC organoid and F14 CAF mono and co-culture. […] Cell viability is reported both mono and co-culture models.
Colon cancer organoid [2] = assay: Optimized Dual-Glo assay to identify co-culture induced drug vulnerabilities using donated chemical probes and chemogenomics kinase set in O06 CRC organoid and F06 CAF mono and co-culture. […] Cell viability is reported both mono and co-culture models.
Colon cancer organoid [3] = assay: Optimized Dual-Glo assay to identify co-culture induced drug vulnerabilities using donated chemical probes and chemogenomics kinase set in O20 CRC organoid and F20 CAF mono and co-culture. […] Cell viability is reported both mono and co-culture models.
[4] = Culture type Co-Culture, Transduced with Lucferase2-P2A-EGFP lentivirus
[5] = Culture type Co-Culture, Transduced with Renilla-dsRed lentivirus
[6] = Culture type Mono-Culture, Transduced with Lucferase2-P2A-EGFP lentivirus
[7] = Culture type Mono-Culture, Transduced with Renilla-dsRed lentivirus

Compound | Cell Viability (Colon cancer organoid [1]; [4]) | Cell Viability (Colon cancer organoid [1]; [5]) | Cell Viability (Colon cancer organoid [1]; [6]) | Cell Viability (Colon cancer organoid [1]; [7]) | Cell Viability (Colon cancer organoid [2]; [4]) | Cell Viability (Colon cancer organoid [2]; [5]) | Cell Viability (Colon cancer organoid [2]; [6]) | Cell Viability (Colon cancer organoid [2]; [7]) | Cell Viability (Colon cancer organoid [3]; [4]) | Cell Viability (Colon cancer organoid [3]; [5]) | Cell Viability (Colon cancer organoid [3]; [6]) | Cell Viability (Colon cancer organoid [3]; [7])
CCCCNc1ncc(-c2ccc(CN3CCOCC3)cn2)c(N[C@H]2CC[C@H](O)CC2)n1 | 23.305% | 148.151% | 59.2421% | 71.142% | 22.8495% | 123.664% | 12.6023% | 77.4775% | 8.774% | 223.767% | 10.8517% | 82.0591%
COc1cccc2c1c(O)c(C(=O)N(C)c1ccc(C(F)(F)F)cc1)c(=O)n2C [TASQUINIMOD] | 94.583% | 144.919% | 82.4794% | 97.8059% | 78.5663% | 130.265% | 63.1287% | 110.699% | 63.9822% | 99.9703% | 87.5673% | 108.719%
CC[C@H](CC(=O)O)n1c(=O)c2ncccc2n(Cc2cn(C)c3cc(C)cc(C)c23)c1=O [BI-1942] | 138.147% | 85.0736% | 117.29% | 91.8874% | 119.907% | 136.619% | 121.189% | 103.918% | 107.514% | 100.799% | 88.7956% | 92.5825%
COc1c(C)cc(NC(=O)c2nn(Cc3ccc(F)cc3)c3c2CN(C(=O)c2ccc[nH]2)C[C@]3(C)C(N)=O)cc1C | 89.068% | 129.679% | 87.8638% | 102.007% | 66.5012% | 112.674% | 87.4341% | 110.624% | 106.451% | 95.1299% | 138.387% | 102.921%
O=C(Nc1cnc(Oc2ccc(F)cc2)nc1)N1CCc2ncccc2[C@@H]1c1ccc(F)cc1 [BAY-899] | 76.8335% | 114.239% | 91.8718% | 105.629% | 92.2798% | 100.101% | 137.923% | 100.535% | 151.718% | 104.61% | 76.6403% | 85.9791%
O=C(N[C@H]1CCCCC/C=C\C2C[C@@]2(C(=O)O)NC(=O)[C@@H]2C[C@@H](Oc3ccncc3)CN2C1=O)OC1CCCC1 (stereo partly drawn) [BI 1675] | 104.235% | 108.175% | 94.4705% | 89.8487% | 118.509% | 153.84% | 83.7502% | 91.3607% | 103.036% | 110.731% | 113.647% | 94.6025%
COc1cc2c(cc1-c1c(C)noc1C)ncc1[nH]c(=O)n([C@H](C)c3ccccn3)c12 | 36.9013% | 317.138% | 43.8564% | 208.742% | 43.5488% | 325.273% | 54.5625% | 294.029% | 26.0295% | 172.215% | 25.6738% | 101.868%
CCc1ccccc1C(=O)Nc1n[nH]c2c(C)c(F)c(C3C(C#N)=C(C)N(C)C(C)=C3C#N)cc12 [BAY-3827] | 89.6646% | 118.565% | 81.9788% | 77.2526% | 80.578% | 109.489% | 83.7184% | 82.828% | 74.4041% | 157.673% | 58.8443% | 110.691%
Clc1cccc(-c2nnnn2Cc2cccnc2)c1Cl | 106.43% | 104.512% | 115.794% | 81.6635% | 143.79% | 176.132% | 116.081% | 109.73% | 106.259% | 101.74% | 98.4532% | 98.284%
Cn1cnc2c(F)c(Nc3ccc(Br)cc3Cl)c(C(=O)NOCCO)cc21 [SELUMETINIB] | 41.0506% | 90.7653% | 35.0637% | 76.2393% | 107.697% | 90.3962% | 52.8036% | 90.0191% | 54.0546% | 152.417% | 80.7355% | 77.3788%
Cn1c(C2(NC(=O)c3ccc(NCC4CCCCC4)nc3)CCC2)nc2ccc(/C=C/C(=O)O)cc21 [BI 7656] | 115.178% | 112.206% | 113.679% | 103.836% | 130.07% | 105.71% | 133.812% | 120.577% | 93.1126% | 134.723% | 113.339% | 113.787%
Cn1cc(CCn2cnc(-c3cnn(C)c3)c2-c2ccc(C#N)cc2)cn1 | 112.655% | 89.8106% | 89.6485% | 97.1773% | 101.212% | 117.261% | 137.811% | 99.9578% | 162.016% | 107.326% | 101.421% | 89.845%
CCNC(=O)c1cc2c(-c3cc(C(C)(C)O)ccc3Oc3c(C)cc(F)cc3C)cn(C)c(=O)c2[nH]1 [ABBV-744] | 55.2801% | 319.971% | 42.072% | 212.265% | 91.6049% | 287.135% | 45.0108% | 272.327% | 58.1744% | 215.224% | 60.9117% | 122.12%
Cn1cc(C2=C(c3cn(C4CCN(Cc5ccccn5)CC4)c4ccccc34)C(=O)NC2=O)c2ccccc21 [ENZASTAURIN] | 77.4844% | 94.2381% | 86.5336% | 83.0179% | 65.6638% | 92.7001% | 58.602% | 101.572% | 54.9568% | 78.6109% | 53.3905% | 66.2903%
